The values below come from the METLIN SMRT retention time set (Domingo-Almenara et al. 2019).

This series in a line: gradient 5% acetonitrile 3 min, to 50% in 2 min, to 85% in 15 min, held 3 min, 100 µL/min. The note with it: column: Zorbax Extend-C18 2.1 x 50 mm; eluents: water / acetonitrile, 0.1% formic acid. In short, it runs like this:
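Values are retention times taken from adduct peaks that software picked and an analyst inspected. The pure standards were run as mixtures of ~100 molecules on HPLC linked to a quadrupole time-of-flight mass spectrometer, in positive and negative ionization mode. A Zorbax Extend-C18 column (2.1 × 50 mm, 1.8 μm) was used at 100 μL/min with water and acetonitrile, each including 0.1% formic acid.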
With `O=C(c1ccc(OC(F)(F)F)cc1)N1CCN(c2cc(-c3ccc(Cl)cc3)[nH]n2)CC1`, the RP-LC retention time came out at 991 s.
With `CCc1ccc(-c2cn3cc(C(=O)N(CC)CC)ccc3n2)cc1` the figure was 675 s.
With `Fc1cccc(CN2CC[C@@H]3CN(Cc4ccccc4)[C@@H]3C2)c1` the figure was 624 s; with `CCN1CCN(C(=O)C2CCc3sc(C(=O)N(CC)CC)cc3C2)CC1` (centres undefined), 683 s.
With `CC(C)c1ccc(-c2noc(N3CCC(C(=O)NC4CCCCC4)CC3)n2)cc1` the figure was 1180 s; with `CC(NC(=O)c1cn(C)c2ncccc12)c1ccccn1` (centres undefined), 552 s; with `Cc1ccc(OCC(=O)Nc2nnc(SCc3nnc(-c4ccccc4C)o3)s2)c(C)c1`, 1100 s.
With `COc1ccc(C2CC(=O)Nc3c(C(=O)O)cn(-c4cccc(C(F)(F)F)c4)c32)cc1OC` (centres undefined), the RP-LC retention time was determined as 780 s.
With `CCCCS(=O)(=O)N1CCc2nc(-c3ccc(OC)cc3)ncc2C1` the figure was 983 s; with `COc1ccc(S(=O)(=O)N2CCCC(C(=O)Nc3cccc(F)c3)C2)cc1C` (centres undefined), 1040 s.
Consider `O=C(CCNc1cnc2cnccn12)NCc1ccc(F)c(Cl)c1`, for which the RP-LC retention time came to 601 s.
Molecule `O=C(CSc1ccc(N2CCCC(C(=O)NC3CC3)C2)nn1)Nc1cccc(Br)c1` (centres undefined) showed an RP-LC retention time of 664 s.
With `Cc1ccc(-c2nnc(Cc3nc(-c4ccc(F)cc4)no3)o2)cc1F` the figure was 1100 s; with `Nc1cc(C2CCN(C(=O)Nc3ccccc3C(F)(F)F)CC2)no1`, 698 s.
With `Cc1csc(-c2csc(S(=O)(=O)N3CCN(c4cccc(C)c4C)CC3)c2)n1` the figure was 1310 s; with `CC(C)C[C@@H](C(=O)N[C@H](C(=O)OC1CCCC1)c1ccccc1)[C@H](O)C(=O)NO`, 822 s; with `Cc1nnc(C2CCCCCN2C(=O)c2ocnc2C)o1` (centres undefined), 628 s.
With `Cc1cc(=O)n(CC(=O)NCc2ccccc2Br)c(N2CCOCC2)n1` the figure was 660 s; with `CCCCc1ccc(NC(=O)CSc2ccc(N3CCCC(C(=O)NCCC)C3)nn2)cc1` (centres undefined), 860 s.
With `CCOc1nccnc1N1CCC(N(C)C(=O)c2ccc(C#N)cc2)C1` (centres undefined), the RP-LC retention time was determined as 751 s.
Turning to `CCc1cccc(C)c1Nc1c(-c2cc(Br)ccc2O)nc2ncccn12`, the RP-LC retention time is 1090 s.
With `CCN1CCN(CCNC(=O)c2csc(-c3ccc(N4CCCC4)nc3)n2)CC1` the figure was 550 s; with `COc1ncc(C(=O)Nc2cccc(Cl)c2)c(C)n1`, 812 s.
In turn, `COCCOCC(=O)N1CC(Oc2ccc(-c3nc(C)no3)cc2)C1` gave an RP-LC retention time of 679 s.
`CN(CCCNC(=O)C1CCCN(C(=O)c2cccc(Cl)c2)C1)c1ccccc1` (centres undefined) returned an RP-LC retention time of 676 s.
With `CN(C)S(=O)(=O)c1ccc2c(c1)N(CC(=O)NCCc1cccs1)C(=O)C1CCCCN21` (centres undefined) the figure was 876 s; with `O=C(O)COC(=O)Cc1ccccc1Nc1c(Cl)cccc1Cl`, 957 s.
`CCc1ccccc1NC(=O)N1CC=C(c2cn(C(C)C)c3ncccc23)CC1` displayed an RP-LC retention time of 958 s.
With `CCn1cnc(S(=O)(=O)N2CCCC(C(=O)N3CCN(c4ccccc4)CC3)C2)c1` (centres undefined) the figure was 747 s.
With `O=C(CCNc1c(-c2ccccc2)nc2cnccn12)NCc1cccs1` the figure was 662 s; with `O=C(NCc1nc(-c2ccccc2)no1)c1csc(-n2cccc2)n1`, 894 s; with `Cn1nc(C(=O)N2CCCCC2)c2c1CCN(C(=O)CCC(=O)N1CCC(N3CCCCC3)CC1)C2`, 586 s.
With `COC(=O)C1CCN([C@H]2CS(=O)(=O)C[C@@H]2S(=O)(=O)c2ccc(Cl)cc2)CC1` the figure was 856 s.
The molecule `COc1ccc(CC(=O)N2CCC3(C2)C(=O)Nc2ccc(OC)cc23)c(Cl)c1` (centres undefined) showed an RP-LC retention time of 768 s.
With `CC1=C(c2ccc(Cl)cc2)S(=O)(=O)N=C1N1CCC(NC(=O)C2CCCO2)CC1` (centres undefined), the RP-LC retention time is 779 s.
The molecule `CC(C)N1C(=O)c2cccnc2Sc2cc(NC(=O)C3CCC3)ccc21` displayed an RP-LC retention time of 798 s.
With `CSc1ccc(CNC(=O)CC2CCN(C(=O)c3[nH]c(C)cc3C)CC2)cc1` the figure was 792 s; with `COc1ccc(-c2cn3c(CC(=O)NCc4cccc(Br)c4)csc3n2)cc1`, 811 s.
With `COCc1cc(=O)n(CC(=O)Nc2ccccc2)c(N2CCOCC2)n1` the figure was 767 s; with `COc1ccccc1C(=O)Nc1nc(-c2ccc3c(c2)N(C)C(=O)CO3)cs1`, 969 s; with `COc1ccccc1NS(=O)(=O)c1c[nH]c2ncccc12`, 706 s.
Take `Cc1ccc(CN2CCN(C3CCN(C(=O)c4ccc(Br)o4)CC3)C(=O)C2=O)cc1`: the RP-LC retention time is 718 s.
`Cc1nnc(-c2ccc3ccn(CC(=O)N4CCN(c5ccccc5F)CC4)c3c2)o1` had an RP-LC retention time of 867 s.
The molecule `CN1CCN(C(=O)c2cc(-c3ccccc3)cn2C)CC1` came in with an RP-LC retention time of 619 s.
With `Cc1ccc(NC(=O)C2CC(=O)N(c3ccc4oc(C)nc4c3)C2)cc1` (centres undefined) the figure was 749 s.
With `COc1cc(NC(=O)NCCc2nc3cccnc3n2C2CCCCC2)cc(OC)c1` the figure was 751 s.
For `CN(C1CCc2nn(CC3CC3)c(=O)n2CC1)S(=O)(=O)c1cccc(F)c1` (centres undefined), the RP-LC retention time amounted to 777 s.
Consider `O=C(NCC1CCCO1)c1cc(-c2cccs2)nc2ccccc12` (centres undefined), for which the RP-LC retention time is 841 s.
With `Cc1ccc(C(=O)N2CCC(n3cnnc3-c3ccccc3)C2)cn1` (centres undefined) the figure was 573 s; with `O=C(c1ccc(F)cc1)N1c2nc(-c3ccccc3)nn2C2(CCCCC2)[C@@H]2CCCC[C@@H]21`, 576 s; with `CC(C)n1c(=O)sc2cc(S(=O)(=O)N3CCC(C(=O)NCc4ccco4)CC3)ccc21`, 861 s.
With `CN1CCN(C(=O)CCCN2C(=O)CCn3nc(-c4cn(C)c5ccccc45)cc32)CC1` the figure was 571 s.
`O=c1c(=O)n(-c2ccccc2)ccn1Cc1nc(-c2cccc(C(F)(F)F)c2)no1` yielded an RP-LC retention time of 902 s.
With `Cc1ccc(C(=O)NCc2ccc3c(c2)nnn3C)cc1` the figure was 693 s; with `Cc1c(C(=O)N2CCOCC2)cnn1-c1ccc(-c2nc(C3CC3)no2)cn1`, 778 s; with `COC1CCC12CCN(C(=O)CC1CCN(C(C)=O)CC1)CC2` (centres undefined), 658 s.
With `COC(=O)C1=CN(c2cc(OC)cc(OC)c2)c2cc(F)ccc2S1(=O)=O` the figure was 904 s.
With `Cc1cccn2cc(-c3cccc(S(=O)(=O)N4CCCCC4)c3)nc12` the figure was 700 s; with `COC(=O)c1ccc2nc(NC(=O)c3ccccc3S(C)(=O)=O)sc2c1`, 744 s; with `O=C(Nc1cnn(-c2ncncc2N2CCCC2)c1)c1ccc(C(F)(F)F)cc1`, 779 s.
In turn, `Cc1ccc(NC(=O)CN2CCc3c(c(=O)c4cc(C)ccc4n3C)C2)cc1` came in with an RP-LC retention time of 649 s.
With `Cc1ccc(Cl)cc1N1CCN(C(=O)c2ccc3c(c2)NC(=O)C2CCCCN32)CC1` (centres undefined) the figure was 1080 s; with `Cn1cc(S(=O)(=O)N2CCC(C(=O)N3CCCC3)CC2)cc1C(=O)N1CCCCC1`, 681 s; with `Cc1nc(S(=O)(=O)N2CCC(C(=O)N3CCN(c4ccc(Cl)cc4)CC3)CC2)cn1C`, 859 s.
`COc1ccc(-n2ccnc(NC(=O)Nc3ccc(F)c(Cl)c3)c2=O)cc1` returned an RP-LC retention time of 1020 s.
`Cc1nc(C(=O)N2CCCCCC2c2nnc(C)o2)co1` (centres undefined): the RP-LC retention time was 649 s.
With `O=C1Nc2ccccc2SC1C(=O)N1CCC(C(=O)N2CCN(c3ccccc3)CC2)CC1` (centres undefined) the figure was 766 s; with `CCc1nc(-c2csc(S(=O)(=O)N3CCCC(C(=O)NCc4cccnc4)C3)c2)no1` (centres undefined), 660 s; with `CCCn1cnc2cc(CNC(=O)c3ccc(Cl)c(Cl)c3)ccc21`, 683 s.
With `COc1ccc(-c2cc3n(n2)CCCN(C(=O)c2ccc4nc[nH]c4c2)C3)cc1` the figure was 614 s; with `COc1ccc(-c2nnc(N3CCC(C(=O)NCCN(C)C)CC3)o2)cc1`, 594 s; with `Cc1cc(C)c(CNC(=O)c2c(C)sc3ccn(C)c(=O)c23)c(C)c1`, 921 s.
With `Cc1ccc2[nH]cc(CCNC(=O)CCC(=O)N3Cc4cccn4-c4ccccc43)c2c1` the figure was 868 s; with `Cc1ccc2[nH]c(=O)c(CCC(=O)NCc3ccncc3)cc2c1`, 586 s; with `CC(=O)Nc1ccc(OC(=O)c2ccccc2OC(C)=O)cc1`, 853 s.
In turn, `COC(=O)c1sccc1NC(=O)Cn1c(C)cc(C)c(-c2nc(-c3ccc(C)cc3)no2)c1=O` yielded an RP-LC retention time of 1110 s.
With `Cc1cc(C(=O)N2CCCn3nc(-c4ccc(F)cc4)cc3C2)nn1C` the figure was 629 s.
With `CCOc1ccc(C(=O)c2ccc(Cl)c(N)c2)cc1` the figure was 935 s; with `Cc1ccc(C)c(S(=O)(=O)Nc2ccc3scnc3c2)c1`, 776 s.
